Earlier results, collected in patent US11154616B2, “Methods of treating locally advanced or metastatic breast cancers using PD-1 axis binding antagonists and taxanes” (Genentech, Inc., priority 2015, dated 2021).

Test system: mTNBC
Conditions: monotherapy in mTNBC

MPDL3280A: humanized monoclonal anti-PD-L1 antibody that inhibits the binding of PD-L1 to PD-1
clinical response as a monotherapy: durable responses
